For assay [1], the target named is T1, AcrAB-TolC efflux pump (Escherichia coli, UniProt P31224). Kind of assay: H33342 accumulation assay. The format is cell-based, Escherichia coli 287. On the set-up: endogenous in cells; host or cells: E. coli strains 285 and 287 (ciprofloxacin-resistant mutants of AB1157). Conditions: hyper-efflux strain 287.
Target sequence in this assay (P02930 23-493): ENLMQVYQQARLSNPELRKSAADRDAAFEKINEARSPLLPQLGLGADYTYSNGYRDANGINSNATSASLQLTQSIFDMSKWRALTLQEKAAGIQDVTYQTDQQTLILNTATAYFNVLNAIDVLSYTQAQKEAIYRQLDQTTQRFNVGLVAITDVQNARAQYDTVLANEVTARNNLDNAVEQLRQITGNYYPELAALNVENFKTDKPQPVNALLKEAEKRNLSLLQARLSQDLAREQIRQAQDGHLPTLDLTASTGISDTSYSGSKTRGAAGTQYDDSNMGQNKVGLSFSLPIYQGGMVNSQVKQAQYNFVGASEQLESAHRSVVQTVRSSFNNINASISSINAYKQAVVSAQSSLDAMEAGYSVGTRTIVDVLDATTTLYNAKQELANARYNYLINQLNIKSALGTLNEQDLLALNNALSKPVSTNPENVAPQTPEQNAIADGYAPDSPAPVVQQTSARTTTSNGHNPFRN
Target sequence in this assay (P0AE06 25-397, further chain): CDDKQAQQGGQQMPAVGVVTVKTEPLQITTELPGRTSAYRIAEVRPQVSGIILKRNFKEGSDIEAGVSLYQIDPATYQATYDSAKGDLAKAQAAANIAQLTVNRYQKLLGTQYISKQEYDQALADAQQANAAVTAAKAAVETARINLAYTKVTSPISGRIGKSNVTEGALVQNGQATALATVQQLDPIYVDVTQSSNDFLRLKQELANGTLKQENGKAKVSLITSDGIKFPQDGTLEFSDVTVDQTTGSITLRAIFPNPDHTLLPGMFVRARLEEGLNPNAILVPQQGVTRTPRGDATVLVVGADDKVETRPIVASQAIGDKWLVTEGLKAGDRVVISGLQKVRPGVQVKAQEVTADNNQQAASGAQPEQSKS
Target sequence in this assay (P31224 whole entry): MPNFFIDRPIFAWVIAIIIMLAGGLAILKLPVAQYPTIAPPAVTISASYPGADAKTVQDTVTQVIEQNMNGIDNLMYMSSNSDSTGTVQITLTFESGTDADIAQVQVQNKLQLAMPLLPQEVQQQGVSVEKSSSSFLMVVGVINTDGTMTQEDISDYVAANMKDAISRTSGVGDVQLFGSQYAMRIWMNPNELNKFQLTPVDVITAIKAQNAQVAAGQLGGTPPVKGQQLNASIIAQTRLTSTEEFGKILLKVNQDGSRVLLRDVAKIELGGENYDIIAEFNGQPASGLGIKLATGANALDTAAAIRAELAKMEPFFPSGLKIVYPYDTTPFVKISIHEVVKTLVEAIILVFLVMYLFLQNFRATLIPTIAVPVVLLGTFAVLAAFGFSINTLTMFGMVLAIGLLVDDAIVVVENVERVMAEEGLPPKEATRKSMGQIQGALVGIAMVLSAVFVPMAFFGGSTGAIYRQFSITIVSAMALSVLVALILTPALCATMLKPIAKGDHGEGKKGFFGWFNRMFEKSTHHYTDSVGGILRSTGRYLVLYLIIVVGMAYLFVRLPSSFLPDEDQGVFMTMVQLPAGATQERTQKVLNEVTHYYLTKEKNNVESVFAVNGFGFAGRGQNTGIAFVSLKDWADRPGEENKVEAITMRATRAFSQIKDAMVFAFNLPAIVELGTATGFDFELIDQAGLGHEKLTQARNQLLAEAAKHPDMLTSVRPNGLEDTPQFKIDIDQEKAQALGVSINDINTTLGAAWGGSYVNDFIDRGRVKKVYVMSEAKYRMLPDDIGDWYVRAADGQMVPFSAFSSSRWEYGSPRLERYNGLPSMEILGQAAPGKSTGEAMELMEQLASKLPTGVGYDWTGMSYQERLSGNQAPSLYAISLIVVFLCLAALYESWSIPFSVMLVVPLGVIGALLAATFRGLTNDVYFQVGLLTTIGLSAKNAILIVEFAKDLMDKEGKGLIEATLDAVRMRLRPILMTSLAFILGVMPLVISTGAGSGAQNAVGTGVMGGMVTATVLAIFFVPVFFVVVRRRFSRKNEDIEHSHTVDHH
Assay [2] concerns the target T1, AcrAB-TolC efflux pump. Kind of assay: H33342 accumulation assay. To be noted: E. coli 331 (CIPR); 25 μM. On the set-up: endogenous in cells; host or cells: E. coli 331 (fluoroquinolone-resistant). The format is cell-based.
Target sequence in this assay (P31224 whole entry): as above
Target sequence in this assay (P0AE06 25-397, further chain): as the sequence (P0AE06 25-397, further chain) above
Target sequence in this assay (P02930 23-493, further chain): as the sequence (P02930 23-493) above
The test system of assay [3] is Escherichia coli AB1157 ΔemrB. In words: Checkerboard MIC assay (antibacterial agent + MBX2319). The format is cell-based. Conditions: EmrB-defective mutant; data not shown. An excerpt: (§1) • Strains and Reagents. The following strains were obtained from the Keio collection (Baba, et al.: Construction of Escherichia coli K-12 in-frame, single-gene knockout mutants: the Keio collection. In Mol Syst Biol, vol. 2, pp. 2006 0008, (2006)): JW0451 (ΔacrB::kan), JW5503 (ΔtolC::kan), JW3234 (ΔacrF::kan), JW2661 (ΔemrB::kan), JW0863 (ΔmacB::kan). The deletion mutations in each of these strains were transferred to AB1157 using P1 phage transduction (see Table 1). The construction of the E. coli cell-based reporter strain (SOS-XXX) that was used for high throughput screening is described in detail in the supplementary information. […] Irgasan was a generous gift from Ciba Speciality Chemicals, Inc. (High Point, N.C.). Hoechst 33342 (H33342) was purchased from Molecular Probes (Eugene, Oreg.). […] Luria Broth (Miller) and agar were purchased as prepared dehydrated media from Becton Dickenson (Franklin Lakes, N.J.). The compound libraries used in high-throughput screens were purchased from Chembridge (San Diego, Calif.), ChemDiv (San Diego, Calif.), and TimTec (Newark, Del.). MBX2319 was synthesized by Microbiotix, Inc. • Antibacterial Activity Assays. The minimal inhibitory concentration (MIC) of antibacterial agents and biocides were determined using the microbroth dilution method essentially as described in the CLSI protocol M7-A7 (CLSI: Method for dilution antimicrobial susceptibility testing for bacteria that grow aerobically; Approved standard-document M7-A7. In Clinical and Laboratory Standards Institute document M7-A7, Clinical and Laboratory Standards Institute, Wayne, Pa., (2006)), with the following exceptions. LB media was used instead of MHB. […] The final concentration of DMSO in each assay was 2%. […] MIC assays were performed in triplicate and the geometric mean was calculated. Checkerboard MIC assays using an EPI and an antibacterial agent were performed essentially as described (Pillai, et al.: Antimicrobial Combinations. In Antibiotics in Laboratory Medicine, ed. by V. Lorian, pp. 365-440, Lippincott Williams & Wilkins, Philadelphia, Pa., (2005)), with the same modifications used for the MIC assays described above. • Time-Kill Assays. Killing curve assays were performed essentially as described (Pillai, et al.: Antimicrobial Combinations. In Antibiotics in Laboratory Medicine, ed. by V. Lorian, pp. 365-440, Lippincott Williams & Wilkins, Philadelphia, Pa., (2005)). Exponential bacterial cultures grown in LB were diluted to a cell density of ˜1×10^7 in LB followed by addition of CIP and/or an EPI. Viability was monitored over 2-4 hours by making serial dilutions in saline and spotting 5 μl of each dilution onto the surface of an LB agar plate in triplicate. Colonies were counted after the plates were incubated at 37° C. for 16-18 hr, colony forming units (CFU) per ml were calculated, and the average and standard deviation for the three replicates was determined. For treatments that decreased CFU/ml below the limit of detection for the spot plating method, the 100 μl samples were diluted into 5 ml LB top agar, were poured onto LB agar plates, and incubated for 18 hr at 37° C. To calculate the fraction of the control for each sample, the average CFU/ml values for treated samples were divided by those from the same sample at 0 h (time=0). Each experiment was repeated at least three times, and a representative experiment is shown. • H33342 Accumulation Assay. The rate of accumulation of the fluorescent dye Hoechst 33342 (H33342), which is a substrate of a wide variety of bacterial efflux pumps (van den Berg van Saparoea, et al., Biochemistry, vol. 44, pp. 16931-16938, (2005)), can be used to estimate the activity of the major efflux pumps in E. coli and many other bacterial species. The H33342 accumulation assay was used to evaluate the effect of EPIs on the activity of the AcrAB-TolC efflux pump in several bacterial species essentially as described (Coldham, et al., J Antimicrob Chemother, vol. 65, pp. 1655-1663, (2010)). […]

In assay [4] the test system is Escherichia coli AB1157 ΔmacB. Described as above. The format is cell-based. To be noted: MacB-defective mutant; data not shown.
Text: as §1

Assay [5] deals with Escherichia coli AB1157 ΔacrB. Kind of assay: MIC assay (microbroth dilution). The format is cell-based.
Text: as §1
In general terms: Dilution methods test growth across graded concentrations, often in twofold steps.

A further assay deals with P. aeruginosa ATCC 27853. In words: MIC assay (microbroth dilution) ± 25 μM EPI. The format is cell-based, Pseudomonas aeruginosa.
Text: as §1

For `CC1(C)Cc2c(C#N)c(SCCc3ccccc3)nc(N3CCOCC3)c2CO1` [MBX2319], the H33342 accumulation entry at AcrAB-TolC efflux pump [1] is “increased H33342 accumulation”; on AcrAB-TolC efflux pump [2], “weak activity”. For the same molecule, the “MIC shifts by MBX2319” value in assay [3] and in assay [4] was “MIC shifts similar to WT” each time.
Regarding `CCN1CCN(C(=O)N[C@@H](C(=O)N[C@@H]2C(=O)N3[C@@H]2SC(C)(C)[C@@H]3C(=O)O)c2ccccc2)C(=O)C1=O` [Piperacillin, piperacillin], the MIC was found to be 0.25 µg/mL in assay [5] (Escherichia coli, read-out: MICs (μg/ml) ΔacrB None) and 16 µg/mL with P. aeruginosa ATCC 27853 (Pseudomonas aeruginosa, ATCC27853, no EPI, read-out: MIC (μg/ml) ± EPI: None). Also, the “MIC Ratio ΔacrB” value in assay [5] (MIC WT/MIC ΔacrB) is given as 16. Moreover, the “MIC (μg/ml) ± EPI: MBX2319” value with P. aeruginosa ATCC 27853 (+ 25 μM MBX2319) was determined as 19 µg/mL. The “MIC (μg/ml) ± EPI: PAβN” value in the assay on P. aeruginosa ATCC 27853 (+ 25 μM PAβN) turned out to be 19 µg/mL. Further, the “MIC Ratio MBX2319” value in the assay with P. aeruginosa ATCC 27853 (MIC no cmpd/MIC + 25 μM MBX2319) stood at 0.84. For the same molecule, in the assay with P. aeruginosa ATCC 27853 (MIC no cmpd/MIC + 25 μM PAβN), the “MIC Ratio PAβN” value came to 0.8.
